Experimental data reported in patent publication US20120149708A1, “MODULATORS OF VIRAL TRANSCRIPTION, AND METHODS AND COMPOSITIONS THEREWITH” (George Mason University, priority 2010, published 2012).

Experiments:
[1] = tested on: ACH2 cells (HIV-1 infected); test: Cell viability by trypan blue exclusion, 48 hours; type: cell-based; details: HIV-1 infected
Protocol: (§1) TZM-bl cell lines were grown in Dulbecco's modified Eagle's medium supplemented with fetal bovine serum (FBS) (10%, v/v), 2 mM L-glutamine, and antibiotics (penicillin 100 U/ml, streptomycin […]) (cDMEM). HCT116 WT and HCT116 Dicer−/−cell lines were grown in McCoy's medium supplemented with FBS (10%, v/v), 2mM L-glutamine, and antibiotics (penicillin 100 U/ml, streptomycin […]). CEM, ACH2, Jurkat and U937 cells were grown in RPMI 1640 supplemented with FBS, L-glutamine, and antibiotics (penicillin 100 U/ml, streptomycin […]). All cell lines were maintained at 37° C. in 5% (v/v) CO2. […]
(§2) In brief, the inhibition studies were carried out as follows. HIV-1 infected cells ACH2, J1.1, OM10.1, U1 and uninfected CEM, Jurkat T-cells, and U937 were cultured in media. The appropriate inhibitor was added at a concentration of 10 μM. Cells were treated for 48 hours and cell viability was determined using trypan blue exclusion method. Results of such a screen for 19 inhibitors is shown in Table 1 where percent dead cells are indicated each drug tested.
(§3) Again HIV-1 infected and uninfected cells were treated with eighteen Formula I compounds at a drug concentration of 50 nm. Forty-eight hours after treatment, cytotoxicity was determined by trypan blue dye exclusion. Percent inhibition was calculated after obtaining the cell density for each well of the tissue culture plate at the end of 48 hrs.

[2] = tested on: Jurkat T-cells (uninfected); test: Cell viability by trypan blue exclusion, 48 hours; type: cell-based
Protocol: as §1, §2, §3

[3] = tested on: J1.1 cells (HIV-1 infected); test: Cell viability by trypan blue exclusion, 48 hours; type: cell-based
Protocol: as §2, §3

[4] = tested on: OM10.1 cells (HIV-1 infected); test: Cell viability by trypan blue exclusion, 48 hours; type: cell-based
Protocol: as §2, §3

[5] = tested on: U1 cells (HIV-1 infected); test: Cell viability by trypan blue exclusion, 48 hours; type: cell-based
Protocol: as §2, §3

[6] = tested on: HIV-1 infected and uninfected cells; test: Classification of inhibitors by effect on viability of infected versus uninfected cells; type: cell-based; details: high
Source text: The inhibitors were classified into three categories: high, moderate or poor, according to their effect on cellular viability in both HIV-1 infected and uninfected cells. Among the compounds tested in this study, CR8, a purine analog bearing a 2-pyridyl group para to the phenyl ring position 6 of the purine was the most promising drug candidate that killed HIV-1 infected cells, while having little or no effect on the death of uninfected cells.

[7] = tested on: HIV-1 (pNL4.3) in Jurkat T-cells; test: Reverse transcriptase assay of supernatants, pNL4.3 electroporated cells; type: cell-based; details: Flavopiridol 200 nm, CR8 100 nm, CR8#13 50 nm, 48 hours
Protocol: (§4) Jurkat T-cell and promonocytic U937 cells were electroporated with 5 μg pNL4.3 followed the next day by drug treatment of Flavopiridol (200 nm), CR8 (100 nm) or CR8#13 (50 nm). Cell supernatants were collected at 48 hours post drug treatment. Viral supernatants (10 μl) were incubated in a 96-well plate with reverse transcriptase (RT) reaction mixture overnight at 37° C., and 10 μl of the reaction mix was spotted on a DEAE Filtermat paper, washed with 5% (w/v) Na2HPO4 followed by water wash, and then dried completely. RT activity was measured in a Betaplate counter.
(§5) For electroporations, Jurkat and U937 cells were resuspended at 3 million cells in 250 μl of RPMI. Five microgram of pNL4-3 was then added to the cell suspension. Cells were pulsed a single time at 210V, 800 μF, and low resistance. Electroporated cells were immediately transferred to RPMI-1640 with L-glutamine and Penicillin/Streptomycin with 10% (v/v) FBS and plated in 6 well plates. Twenty four hours-post electroporation, cells were treated with drugs for additional 48 hrs and harvested for RT analysis. RT assays were performed as described in ((Guendel et al. 2009; Easley et al. 2010).
(§6) The present inventors examined whether Formula I, or Formula II compounds were effective inhibiting viral transcription in cell lines infected with an HIV-1 construct. Thus, Jurkat T-cells and promonocytic U937 cells were transfected with pNL4.3 and then treated with Flavopiridol, CR8 and CR8#13. Similar to monocytes, the Dicer levels are low to undetectable in promonocytic cells (FIG. 6) and was detectable only when these cells had differentiated into macrophages with PMA treatment.
(§7) Following drug treatment cell supernatants were collected and processed for exogenous reverse transcriptase (RT) levels.

[8] = tested on: HIV-1 (pNL4.3) in promonocytic U937 cells; test: as above; type: cell-based; details: Flavopiridol 200 nm, CR8 100 nm, CR8#13 50 nm, 48 hours
Protocol: as §4, §5, §6, §7

[9] = tested on: 3′TAR and 5′TAR microRNA; test: Poly-A RT-PCR of TAR microRNA in TZM-bl cells with or without TSA; type: cell-based, HIV-1; details: for 3′ TAR microRNA amount: non-TSA treated TZM-bl cells, Flavopiridol 50 nm, CR8 100 nm, CR8#13 100 nm
Protocol: RNA was extracted 48 hrs-post drug treatment. 500 ng of RNA from the microRNA-enriched fraction was used to generate cDNA using the Quantimir kit (SBI) in order to poly adenylate small RNA species. RT reactions were performed followed by PCR in which a universal reverse primer was provided by the manufacturer. Specific microRNA forward primers are identical in sequence to the microRNA of interest. PCR products corresponding to the amplified microRNAs were separated in a 3.5% (w/v) agarose gel. The PCR products are at around 67 bp as compared with the Fermentas 1 kb DNA Plus Ladder. Increased levels of 3′TAR microRNA were produced post CR8#13 treatment.
For poly-A RT-PCR detection of microRNAs, 500 ng of RNA from the microRNA-enriched fraction was used to generate cDNA using the Quantimir kit (SBI) according to the manufacturer's protocol. Briefly, small RNA species are poly-adenylated and then reverse transcription reactions are performed with a company-provided RT primer. For PCR, a universal reverse primer is provided by the manufacturer. Specific microRNA forward primers are identical in sequence to the microRNA of interest. PCR products corresponding to the amplified microRNAs were separated in a 3.5% (w/v) agarose gel and quantified using the Kodak 1D software.
To determine whether the cdk inhibitors Flavopiridol, CR8, and CR8#13 increased levels of TAR microRNA in the TSA-treated and control TZM-bl cells total RNA was extracted from both TSA treated and control cells treated with Flavopiridol, CR8, and CR8#13 and processed for RT-PCR detection of microRNAs, specifically, for the presence of 3′TAR and 5′TAR molecules.

Structure (SMILES)	Inhibition Percentage ACH2 ([1]; 50 nM, 48 hrs)	Inhibition Percentage Jurkat ([2]; 50 nM, 48 hrs)	Inhibition Percentage J1.1 ([3]; 50 nM, 48 hrs, HIV-1 infected)	Inhibition Percentage OM10.1 ([4]; 50 nM, 48 hrs, HIV-1 infected)	Inhibition Percentage U1 ([5]; 50 nM, 48 hrs, HIV-1 infected)	Selectivity ([6]; 50 nM, moderate or poor)	RT levels in supernatant [7]	RT levels in supernatant [8]	3′ TAR microRNA amount [9]	inhibition at 10 µM ([1]; Human immunodeficiency virus 1, ACH-2, 48 h, 10 μM, 48 hours, read-out: % Inhibition (percent dead cells) ACH2) [%]	inhibition at 10 µM ([2]; Homo sapiens, Jurkat, 10 μM, 48 hours, read-out: % Inhibition (percent dead cells) Jurkat) [%]	inhibition at 10 µM ([3]; Human immunodeficiency virus 1, 48 h, read-out: % Inhibition (percent dead cells) J1.1) [%]	inhibition at 10 µM ([4]; Human immunodeficiency virus 1, 48 h, read-out: % Inhibition (percent dead cells) OM10.1) [%]	inhibition at 10 µM ([5]; Human immunodeficiency virus 1, 48 h, read-out: % Inhibition (percent dead cells) U1) [%]	Selectivity ([6]; 10 μM, moderate or poor by effect on viability of infected and uninfected cells)	3′ and 5′ TAR microRNA amount ([9]; TZM-bl cells treated with TSA for 7 days, then drug)
CC(C)c1cnn2c(NCc3ccc(-c4ccccn4)cc3)nc(NC[C@H](O)CO)nc12.O=C(O)/C=C/C(=O)O [BJFP1154]	− (1-5%)	− (1-5%)	− (1-5%)	− (1-5%)	− (1-5%)	Poor	effective at decreasing RT levels	not U937 monocytic cells	significantly increased amount of the 3′ TAR microRNA	–	–	–	–	–	–	–
CC[C@@H](CO)Nc1nc(NCc2ccc(-c3ccccn3)cc2)c2ncn(C(C)C)c2n1 [CR8]	–	–	–	–	–	–	effective at decreasing RT levels	not U937 monocytic cells	significantly increased amount of the 3′ TAR microRNA	90	50	75	75	90	High	higher amounts of both 3′ and 5′ TAR microRNA
